Measured values as given in patent publication US6949648B2, “Condensed pyrazole derivatives, process for producing the same and use thereof” (Takeda Pharmaceutical Company Limited, priority 2000, dated 2005).
Where a name gives a salt, the structure may show the parent alone.

melting point [°C] | Structure (SMILES)
234 to 237 | Cc1nn(-c2cccnc2)c2nc3ccccc3c(N)c12.Cl.Cl
259 to 266 | Cc1nn(-c2ccncc2)c2nc3ccccc3c(N)c12.Cl.Cl
287 to 290 | Cc1nn(-c2ncccn2)c2nc3ccccc3c(N)c12.Cl
249 to 252 | CCc1nn(-c2ccccn2)c2nc3ccccc3c(N)c12.Cl
237 to 240 | Cc1nn(-c2ccncc2)c2[nH]c3cc(F)c(F)cc3c(=O)c12.Cl.Cl
287 to 290 | Cc1ccc2nc3c(c(C)nn3-c3ccccn3)c(N)c2c1.Cl
283 to 286 | Cc1cccc2c(N)c3c(C)nn(-c4ccccn4)c3nc12.Cl
248 to 251 | COc1cccc2c(N)c3c(C)nn(-c4ccccn4)c3nc12.Cl
277 to 280 | COc1cc2nc3c(c(C)nn3-c3ccccn3)c(N)c2cc1OC.Cl
208 to 211 | Cc1nn(-c2ccccn2)c2nc3ccccc3c(NC3CC3)c12.Cl
287 to 290 | Cc1nn(-c2ncccn2)c2nc3ccccc3c(N)c12 (as salt: hydrochloride) [Example 1-65, 3-Methyl-1-(2-pyrimidinyl)-1H-pyrazolo[3,4-b]quinolin-4-ylamine hydrochloride]
193 to 195 | Cc1cccnc1-n1nc(C)c2c(=O)c3cccc(C)c3[nH]c21 (as salt: salt) [Example 2-135, 3,8-Dimethyl-1-(3-methyl-2-pyridinyl)-1,9-dihydro-4H-pyrazolo[3,4-b]quinolin-4-one]
263 to 266 | O=c1c2cc(F)ccc2[nH]c2c1cnn2-c1ccccn1 (as salt: salt) [Example 2-165, 6-Fluoro-1-(2-pyridinyl)-1,9-dihydro-4H-pyrazolo[3,4-b]quinolin-4-one]
262 to 265 | Cc1nn(Cc2ccccn2)c2nc3ccccc3c(N)c12 (as salt: salt) [Example 2-187, 3-Methyl-1-(2-pyridinylmethyl)-1H-pyrazolo[3,4-b]quinolin-4-ylamine]
224 to 226 | Cc1nn(-c2ccccn2)c2ncc(C(=O)c3ccccc3)c(O)c12 [Example 1-4, [4-Hydroxy-3-methyl-1-(2-pyridinyl)-1H-pyrazolo[3,4-b]pyridin-5-yl]phenylmethanone]
195 to 197 | CCOC(=O)c1cnc2c(cnn2-c2ccccn2)c1O [Example 1-6, Ethyl 4-hydroxy-1-(2-pyridinyl)-1H-pyrazolo[3,4-b]pyridine-5-carboxylate]
192 to 194 | Oc1ccnc2c1cnn2-c1ccccn1 [Example 1-7, 1-(2-Pyridinyl)-1H-pyrazolo[3,4-b]pyridin-4-ol]
> 300 | Cc1nn(-c2ccccn2)c2ncc(C(=O)NC3CCCCC3)c(O)c12 [Example 1-8, N-Cyclohexyl-4-hydroxy-3-methyl-1-(2-pyridinyl)-1H-pyrazolo[3,4-b]pyridine-5-carboxamide]
> 300 | Cc1nn(-c2ccccn2)c2ncc(C(=O)NCc3ccccc3)c(O)c12 [Example 1-9, N-Benzyl-4-hydroxy-3-methyl-1-(2-pyridinyl)-1H-pyrazolo[3,4-b]pyridine-5-carboxamide]
264 to 266 | Cc1nn(-c2ccccn2)c2ncc(C(=O)N3CCCCC3)c(O)c12 [Example 1-10, [4-Hydroxy-3-methyl-1-(2-pyridinyl)-1H-pyrazolo[3,4-b]pyridin-5-yl](1-piperidinyl)methanone]
> 300 | Cc1nn(-c2ccccn2)c2ncc(C(=O)Nc3ccccc3)c(O)c12 [Example 1-11, 4-Hydroxy-3-methyl-N-phenyl-1-(2-pyridinyl)-1H-pyrazolo[3,4-b]pyridine-5-carboxamide]
> 300 | Cc1nn(-c2ccccn2)c2ncc(C(=O)Nc3ccccc3F)c(O)c12 [Example 1-12, N-(2-Fluorophenyl)-4-hydroxy-3-methyl-1-(2-pyridinyl)-1H-pyrazolo[3,4-b]pyridine-5-carboxamide]
> 300 | Cc1nn(-c2ccccn2)c2ncc(C(=O)Nc3cccc(F)c3)c(O)c12 [Example 1-13, N-(3-Fluorophenyl)-4-hydroxy-3-methyl-1-(2-pyridinyl)-1H-pyrazolo[3,4-b]pyridine-5-carboxamide]
> 300 | Cc1nn(-c2ccccn2)c2ncc(C(=O)Nc3ccc(F)cc3)c(O)c12 [Example 1-14, N-(4-Fluorophenyl)-4-hydroxy-3-methyl-1-(2-pyridinyl)-1H-pyrazolo[3,4-b]pyridine-5-carboxamide]

melting point [°C] | Structure (SMILES)
> 300 | Cc1nn(-c2ccccn2)c2ncc(C(=O)Nc3ccc(F)c(F)c3)c(O)c12 [Example 1-15, N-(3,4-Difluorophenyl)-4-hydroxy-3-methyl-1-(2-pyridinyl)-1H-pyrazolo[3,4-b]pyridine-5-carboxamide]
92 to 93 | Cc1nn(-c2ccccn2)c2ncc(C(=O)N(C)c3ccccc3)c(OCc3ccccc3)c12 [Example 1-17, 4-(Benzyloxy)-N,3-dimethyl-N-phenyl-1-(2-pyridinyl)-1H-pyrazolo[3,4-b]pyridine-5-carboxamide]
175 to 176 | Cc1cc(O)c2c(C)nn(-c3ccccn3)c2n1 [Example 1-18, 3,6-Dimethyl-1-(2-pyridinyl)-1H-pyrazolo[3,4-b]pyridin-4-ol]
181 to 182 | Cc1nc2c(c(C)nn2-c2ccccn2)c(O)c1Cc1ccccc1 [Example 1-20, 5-Benzyl-3,6-dimethyl-1-(2-pyridinyl)-1H-pyrazolo[3,4-b]pyridin-4-ol]
168 to 169 | Cc1nn(-c2ccccn2)c2nc(Cc3ccccc3)cc(O)c12 [Example 1-21, 6-Benzyl-3-methyl-1-(2-pyridinyl)-1H-pyrazolo[3,4-b]pyridin-4-ol]
254 to 255 | Cc1cc(O)nc2c1c(C)nn2-c1ccccn1 [Example 1-23, 3,4-Dimethyl-1-(2-pyridinyl)-1H-pyrazolo[3,4-b]pyridin-6-ol]
226 to 228 | Cc1c(O)nc2c(c(C)nn2-c2ccccn2)c1C [Example 1-24, 3,4,5-Trimethyl-1-(2-pyridinyl)-1H-pyrazolo[3,4-b]pyridin-6-ol]
255 to 256 | Cc1nn(-c2ccccn2)c2nc(O)c3c(c12)CCC3 [Example 1-28, 1-Methyl-3-(2-pyridinyl)-3,6,7,8-tetrahydrocyclopenta[d]pyrazolo[3,4-b]pyridin-5-ol]
243 to 244 | Cc1nn(-c2ccccn2)c2nc(O)c3c(c12)CCCCC3 [Example 1-30, 1-Methyl-3-(2-pyridinyl)-3,6,7,8,9,10-hexahydrocyclohepta[d]pyrazolo[3,4-b]pyridin-5-ol]
147 to 149 | CCOC(=O)c1cnc2c(c(C)nn2-c2ccccn2)c1N [Example 1-31, Ethyl 4-amino-3-methyl-1-(2-pyridinyl)-1H-pyrazolo[3,4-b]pyridine-5-carboxylate]
108 to 110 | Cc1nn(-c2ccccn2)c2nccc(OCc3ccccc3)c12 [Example 1-32, 4-(Benzyloxy)-3-methyl-1-(2-pyridinyl)-1H-pyrazolo[3,4-b]pyridine]
157 to 159 | Cc1nn(-c2ccccn2)c2nc3ccccc3c(Cl)c12 [Example 1-34, 4-Chloro-3-methyl-1-(2-pyridinyl)-1H-pyrazolo[3,4-b]quinoline]
210 to 213 | Cc1nn(-c2ccccn2)c2nc3ccccc3c(N)c12 [Example 1-35, 3-Methyl-1-(2-pyridinyl)-1H-pyrazolo[3,4-b]quinolin-4-ylamine]
199 to 200 | Cc1nn(-c2ccccn2)c2[nH]c3ccccc3c(=O)c12 [Example 1-39, 3-Methyl-1-(2-pyridinyl)-1,9-dihydro-4H-pyrazolo[3,4-b]quinolin-4-one]
97 to 99 | CCCCNc1c2ccccc2nc2c1c(C)nn2-c1ccccn1 [Example 2-7, N-Butyl-N-[3-methyl-1-(2-pyridinyl)-1H-pyrazolo[3,4-b]quinolin-4-yl]amine]
110 to 112 | CCCN(C)c1c2ccccc2nc2c1c(C)nn2-c1ccccn1 [Example 2-9, N-Methyl-N-[3-methyl-1-(2-pyridinyl)-1H-pyrazolo[3,4-b]quinolin-4-yl]-N-propylamine]
85 to 87 | CCCCN(C)c1c2ccccc2nc2c1c(C)nn2-c1ccccn1 [Example 2-10, N-Butyl-N-methyl-[3-methyl-1-(2-pyridinyl)-1H-pyrazolo[3,4-b]quinolin-4-yl]amine]
203 to 205 | Cc1nn(-c2ccccn2)c2nc3ccccc3c(N3CCOCC3)c12 [Example 2-11, 3-Methyl-4-(4-morpholinyl)-1-(2-pyridinyl)-1H-pyrazolo[3,4-b]quinoline]
192 to 193 | Cc1nn(-c2ccccn2)c2c1c(=O)c1ccccc1n2C [Example 2-14, 3,9-Dimethyl-1-(2-pyridinyl)-1,9-dihydro-4H-pyrazolo[3,4-b]quinolin-4-one]
121 to 123 | CCOc1c2ccccc2nc2c1c(C)nn2-c1ccccn1 [Example 2-16, 4-Ethoxy-3-methyl-1-(2-pyridinyl)-1H-pyrazolo[3,4-b]quinoline]
88 to 91 | Cc1nn(-c2ccccn2)c2nc3ccccc3c(OC3CCCCC3)c12 [Example 2-22, 4-Cyclohexyloxy-3-methyl-1-(2-pyridinyl)-1H-pyrazolo[3,4-b]quinoline]
113 to 114 | Cc1nn(-c2ccccn2)c2nc3ccccc3c(SC(C)C)c12 [Example 2-25, 4-(Isopropylsulfanyl)-3-methyl-1-(2-pyridinyl)-1H-pyrazolo[3,4-b]quinoline]
91 to 93 | CCCSc1c2ccccc2nc2c1c(C)nn2-c1ccccn1 [Example 2-27, 3-Methyl-4-(propylsulfanyl)-1-(2-pyridinyl)-1H-pyrazolo[3,4-b]quinoline]

Structure (SMILES) | melting point [°C]
Cc1nn(-c2ccccn2)c2[nH]c3cc(F)c(F)cc3c(=O)c12.O (hydrate or solvate) [Example 2-92, 6,7-Difluoro-3-methyl-1-(2-pyridinyl)-1,9-dihydro-4H-pyrazolo[3,4-b]quinolin-4-one monohydrate] | 273 to 275
Cc1nn(-c2ccccn2)c2nc3ccccc3c(OCC(C)C)c12 [Example 2-20, 4-Isobutoxy-3-methyl-1-(2-pyridinyl)-1H-pyrazolo[3,4-b]quinoline] | 117 to 120
